Among the test systems are A549 NSCLC; CAKI-1 renal; COLO 205 colon; PC-3 prostate; RPMI-8226 leukemia; SK-MEL-28 melanoma; SK-OV-3 ovarian; UACC-62 melanoma; UO-31 renal; A498 renal; MDA-MB-231 breast.
Assay in all cases: DTP human tumour cell line panel, 48 h

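Tested at 5 concentrations; 48 h exposure; 96-well plates; endpoints linearly interpolated, else capped at highest concentration. GI50 = concentration required for 50% inhibition of growth. TGI marks complete inhibition of growth.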

Results on 14 molecules are retold here after PubChem BioAssay (NCI).

Consider `CC12CCC(CC1(Cl)Cl)C2` (stereo not drawn), for which the total growth inhibition concentration (TGI) with A549 NSCLC, with CAKI-1 renal, in the assay on COLO 205 colon, in the assay with PC-3 prostate, with RPMI-8226 leukemia and in the assay with SK-MEL-28 melanoma was > 100 µM throughout. The total growth inhibition concentration (TGI) in the assay on SK-OV-3 ovarian, with UACC-62 melanoma and in the assay on UO-31 renal was > 100 µM each time.
For `OC12c3ccccc3C1CCCCCC21OCCCO1` (stereo not drawn), the TGI in the assay with A498 renal, in the assay on A549 NSCLC, in the assay with CAKI-1 renal, with COLO 205 colon, with RPMI-8226 leukemia and with SK-MEL-28 melanoma was > 100 µM in each case. The total growth inhibition concentration (TGI) in the assay on SK-OV-3 ovarian, in the assay on UACC-62 melanoma and in the assay with UO-31 renal was > 100 µM throughout.
For `Cc1ccc(S(=O)(=O)NC(=O)NC(CCC(N)=O)C(=O)O)cc1` (stereo not drawn), the TGI in the assay with A549 NSCLC, in the assay on COLO 205 colon, in the assay with MDA-MB-231 breast, in the assay with PC-3 prostate, in the assay on RPMI-8226 leukemia and with SK-MEL-28 melanoma was > 100 µM each time. The TGI in the assay on SK-OV-3 ovarian, with UACC-62 melanoma and in the assay on UO-31 renal was > 100 µM each time.
Regarding `CCC(=O)Nc1ccc(NCC(=O)Nc2ccc(OC)cc2)cc1`, the TGI in the assay with A498 renal is 87.9 µM; in the assay with A549 NSCLC it was > 100 µM; in the assay with CAKI-1 renal it was > 100 µM; with COLO 205 colon it was > 100 µM; in the assay on PC-3 prostate it was 89.9 µM; with RPMI-8226 leukemia, 90.5 µM. Further, the TGI with SK-MEL-28 melanoma is > 100 µM; in the assay on SK-OV-3 ovarian it was 95.3 µM; with UACC-62 melanoma, 56.7 µM; in the assay with UO-31 renal, > 100 µM.
Take `CC[n+]1c(/C=C/c2ccc(N(CCCl)CCCl)cc2)ccc2cc(I)ccc21`: the TGI with A498 renal is 13.1 µM; in the assay with A549 NSCLC it was 13.8 µM; in the assay on CAKI-1 renal, 6.19 µM; in the assay on RPMI-8226 leukemia, 1.72 µM; in the assay with SK-OV-3 ovarian, 6.42 µM; with UACC-62 melanoma it was 1.68 µM. The TGI with UO-31 renal was 14.2 µM.
Regarding `C=CCN(CCN(CC=C)S(=O)(=O)c1ccc(C)cc1)S(=O)(=O)c1ccc(C)cc1`, the TGI with A498 renal, in the assay with A549 NSCLC, with COLO 205 colon, in the assay on MDA-MB-231 breast, in the assay on PC-3 prostate and with SK-MEL-28 melanoma was > 100 µM throughout. In the assay with UO-31 renal, the TGI was > 100 µM.
Consider `O=C(O)c1ccc(Nc2nc3nn(Cc4ccccc4)cc3c(=O)s2)cc1`, for which the TGI in the assay on A549 NSCLC, in the assay with COLO 205 colon, in the assay on RPMI-8226 leukemia, in the assay on SK-MEL-28 melanoma, in the assay on SK-OV-3 ovarian and in the assay with UO-31 renal was > 100 µM in each case.
As to `COc1ccccc1C1C(C#N)=C(N)Oc2cc(O)ccc21` (stereo not drawn), the GI50 with A498 renal was 36.8 µM; in the assay with A549 NSCLC, 26.8 µM; in the assay with CAKI-1 renal it was 17.7 µM; with COLO 205 colon, 15.8 µM; with MDA-MB-231 breast, 4.34 µM; with RPMI-8226 leukemia, 5.99 µM. Besides, the GI50 in the assay on SK-MEL-28 melanoma is 25 µM; in the assay on SK-OV-3 ovarian, 16.8 µM; with UO-31 renal, 29.3 µM. The TGI was > 100 µM in the assay with A498 renal; > 100 µM in the assay on A549 NSCLC; 68.9 µM with CAKI-1 renal; 36.6 µM with COLO 205 colon; 24.8 µM with MDA-MB-231 breast; 19.8 µM in the assay with RPMI-8226 leukemia. Besides, the concentration for total growth inhibition (TGI) with SK-MEL-28 melanoma is 86.1 µM; with SK-OV-3 ovarian, 44.6 µM; in the assay on UO-31 renal it was > 100 µM.
Regarding `O/N=C\C(=Nc1ccc(Cc2ccc(N=C(/C=N\O)NO)cc2)cc1)NO`, the TGI was > 100 µM with A498 renal; > 100 µM with A549 NSCLC; 69.2 µM in the assay on CAKI-1 renal; > 100 µM with COLO 205 colon; > 100 µM in the assay on RPMI-8226 leukemia; > 100 µM with SK-MEL-28 melanoma. Further, the TGI with SK-OV-3 ovarian is > 100 µM; in the assay on UACC-62 melanoma, > 100 µM; in the assay on UO-31 renal, 65 µM.
As for `C[n+]1cn(-c2nc3ccccc3nc2[N-]S(=O)(=O)c2ccccc2)c2ccccc21`, the total growth inhibition concentration (TGI) with A549 NSCLC, in the assay with CAKI-1 renal, in the assay on COLO 205 colon, in the assay with MDA-MB-231 breast, with PC-3 prostate and in the assay on RPMI-8226 leukemia was > 100 µM each time. The TGI in the assay with SK-MEL-28 melanoma, in the assay with SK-OV-3 ovarian, in the assay on UACC-62 melanoma and in the assay with UO-31 renal was > 100 µM each time.
Turning to `C=CCn1c(=N)/c(=C(\N)O)s/c1=C1/SC(=S)N(c2ccc(C)cc2)C1=O`, the concentration for total growth inhibition (TGI) with A498 renal, in the assay on A549 NSCLC, in the assay on COLO 205 colon, in the assay with RPMI-8226 leukemia, in the assay on SK-MEL-28 melanoma and in the assay with SK-OV-3 ovarian was > 100 µM in each case. The TGI in the assay with UACC-62 melanoma and in the assay with UO-31 renal was > 100 µM in each case.
`CC(=O)n1nc(-c2ccc3ccccc3c2)nc1C`: the TGI in the assay on A549 NSCLC, in the assay with CAKI-1 renal, in the assay on COLO 205 colon, in the assay with MDA-MB-231 breast, with PC-3 prostate and in the assay on SK-OV-3 ovarian was > 100 µM in each case. Also, the concentration for total growth inhibition (TGI) with UACC-62 melanoma and in the assay with UO-31 renal was > 100 µM each time.
On to `COc1ccc2c3c1OC1C(OC)(OC)CC4(C=C2)CN(C)CCC314` (stereo not drawn), for which the total growth inhibition concentration (TGI) in the assay on A498 renal, in the assay with A549 NSCLC, in the assay with CAKI-1 renal, with COLO 205 colon, in the assay on MDA-MB-231 breast and with RPMI-8226 leukemia was > 100 µM throughout. For the same molecule, the TGI with SK-MEL-28 melanoma, with SK-OV-3 ovarian, with UACC-62 melanoma and in the assay on UO-31 renal was > 100 µM each time.
With `O=C(c1ccco1)N(C(=S)N1CCN(c2ccccn2)CC1)c1ccccc1`, the TGI in the assay with A549 NSCLC, with CAKI-1 renal, in the assay on COLO 205 colon, with RPMI-8226 leukemia, with SK-MEL-28 melanoma and in the assay on SK-OV-3 ovarian was > 100 µM throughout. The total growth inhibition concentration (TGI) in the assay on UACC-62 melanoma and in the assay with UO-31 renal was > 100 µM each time.
